Experiments:
[1] = tested on: Ixodes scapularis nymphal ticks; test: Tick repellency bioassay; format: in vivo; conditions: combinations 1:1 by weight
Text: One-hundred (100) μl of test compound was pipetted onto a cotton-tipped applicator mounted to the bottom center of a 1 dram glass shell vial using non-toxic modeling clay. A total of 8 concentrations were screened with doses ranging from 0.04–5.0%. Applicators treated with acetone only served as controls. A line was drawn around the perimeter of the vial immediate to the base of the treated cotton portion of the applicator. The area above the line was designated the “repellent zone”. The vial was allowed to air-dry 1 h before a single tick was introduced. Vials were covered with a single piece of mesh and fitted with a hollowed-out plastic cap to cover the opening of the vial; this prevented the tick from escaping but allowed for air exchange. Vials were breathed upon by investigators at 1 min intervals and a hand was placed over the test vials to provide stimuli for ticks to pass into the repellent zone. […] If the tick crossed over and remained in the “repellent zone” for ≧5 sec, the tick was deemed non-repelled by the test compound. Each test was replicated 10 times using a new tick for each test. Repellent activity was determined at 1, 2, 3, and 4 h after treatment. Probit analysis was used to determine repellent efficacy (RD50 and RD95).

Ae. aegypti adults = test: Adult mosquito bottle bioassay; format: in vivo, Aedes aegypti; conditions: 24 h exposure
Experimental: Adult mosquitoes were tested using the bottle bioassay method of Brogden and McAllister (J. Am. Mosq. Control Assoc., 14:159–64, 1998) with minor modifications. Natural product extracts were two-fold serially diluted for a total of 8 concentrations ranging from 0.002% to 0.25% in 1.5 ml of acetone. Individual dilutions were added to 250 ml Wheaton glass bottles and capped. Bottles were manipulated to evenly coat all inner surfaces. The caps were removed and bottles were allowed to air-dry overnight. Once bottles were completely dry, 10–50 (in some tests 25–50) adult mosquitoes were aspirated into the bottles. Mosquitoes were held in the bottles for 24 h at 23° C. and 85% RH. Morbidity and mortality were recorded at 15, 30, 45, and 60 min and 24 hour intervals. One bottle for each replicate was treated with acetone only and served as a control. The dose-mortality data was evaluated with probit analysis, using the LdP Line software, to determine LC50 and LC90 values.
Carvacrol was combined with compound 7, 9, or 10 at a 1:1 ratio (7.5 μl of carvacrol:7.5 μl of compound 7, 9, or 10 was added to 2,985 μl of acetone for a 0.5% solution, from which serial dilutions were made), and tested as previously described against nymphal ticks and adult and larval mosquitoes.

[2] = tested on: ticks, fleas and mosquitoes; test: Example 2 bioassay, qualitative comparison on ticks, fleas and mosquitoes (Examples 4, 6); format: in vivo
Experimental: Samples of the compounds listed below were obtained as described in Example 1, and screened for biocidal activities against nymphal Ixodes scapularis. In this example, 2% acetone solutions (wt/vol) of the compounds were applied to inner surfaces of 2-dram friction cap vials. Vials and caps were treated then allowed to dry for a minimum of 4 hours before placing 10 nymphs in each container. These same vials were used to challenge additional nymphs and adult I. scapularis ticks and adult Xenopsylla cheopis fleas through five weeks to observe any possible residual activity.
Nootkatol was tested using the bioassay presented in Example 2.
Two nootkatone samples were compared to nootkatone isolated from Alaska yellow cedar using the method presented in Example 1. The first sample was a natural extract of nootkatone taken from grapefruit oil purchased commercially. The second sample was a synthetically produced nootkatone purchased commercially.
Both samples were compared to the nootkatone originating from Alaska yellow cedar in terms of their biocidal activities. Using a bioassay method similar to that presented in Example 2, no qualitative differences were discernible among the nootkatone samples in terms of their biocidal effect on ticks, fleas and mosquitoes.

I. scapularis nymphs = test: Tick bioassay, treated 2-dram vials, probit analysis; format: in vivo, Ixodes scapularis; conditions: 24 h exposure
Text: A control treated with acetone only was run with each series.
For each time point, if ticks and fleas were incapable of movement, maintaining normal posture, leg coordination, ability to right themselves, or any signs of life, they were considered moribund or dead.

X. cheopis adults = test: Flea bioassay, treated 2-dram vials, probit analysis; format: in vivo, Xenopsylla cheopis; conditions: 24 h exposure
Experimental: Med. […] A control treated with acetone only was run with each series. Tick and flea susceptibility was evaluated using a modification of the disposable pipette method of Barnard et al. (J. Econ. Entomol., 74:466-69, 1981) and Maupin and […]. Med. […] The inner surface of 2-dram friction cap vials were treated with the compound/acetone solution, or acetone only as a control, and left to air-dry overnight (see also, […] et al., J. Med. […] Three to 4 holes were made in the plastic cap to allow for air exchange. Nymphal ticks and adult fleas were then placed directly into the vials using forceps. […] For each time point, if ticks and fleas were incapable of movement, maintaining normal posture, leg coordination, ability to right themselves, or any signs of life, they were considered moribund or dead.

[3] = NE = not effective at concentrations tested

C=C(C)[C@@H]1CCC2=C[C@@H](O)C[C@@H](C)[C@]2(C)C1 [Compound 12, Nootkatol]
RD50 ([1]; 1 hr): 0.047 % (w/v)
RD50 ([1]; 4 hr): 0.320 % (w/v)
LC50 (Ae. aegypti adults; [3]): 0.004 percent concentration, wt:vol
LC90 (Ae. aegypti adults; [3]): 0.01 percent concentration, wt:vol
Slope (Ae. aegypti adults; probit): 3.201
biocidal activity compared with nootkatene [2]: essentially equivalent to the activity of nootkatene
LC50 (I. scapularis nymphs; [3]): 0.023 percent concentration, wt:vol
LC90 (I. scapularis nymphs; [3]): 0.059 percent concentration, wt:vol
Slope (I. scapularis nymphs; probit): 3.069
LC50 (X. cheopis adults; [3]): 0.024 percent concentration, wt:vol
Slope (X. cheopis adults; probit): 2.101

Source: US7230033B2, “Pest control compositions and methods for their use” (United States of America as represented by the Secretary of …, priority 2000, dated 2007)
